Test results: patent US20240384268A1, “Oligonucleotides” (Hudson Institute of Medical Research, priority 2021, published 2024)
In the oligonucleotide strings, read from the 5' end, every base follows the letter of its sugar. An asterisk marks phosphorothioate; unmarked linkages are phosphodiester. Other units and linkages are bracketed, terminal groups are in braces. A string of capitals states the bases alone. d = 2'-deoxy (DNA); m = 2'-O-methyl

Molecular target: T1, human TLR9 (Homo sapiens, UniProt Q9NR96)
T1 construct: HA; host or cells: 293XL-hTLR9-HA (HEK293)
T1 sequence (Q9NR96 26-1032): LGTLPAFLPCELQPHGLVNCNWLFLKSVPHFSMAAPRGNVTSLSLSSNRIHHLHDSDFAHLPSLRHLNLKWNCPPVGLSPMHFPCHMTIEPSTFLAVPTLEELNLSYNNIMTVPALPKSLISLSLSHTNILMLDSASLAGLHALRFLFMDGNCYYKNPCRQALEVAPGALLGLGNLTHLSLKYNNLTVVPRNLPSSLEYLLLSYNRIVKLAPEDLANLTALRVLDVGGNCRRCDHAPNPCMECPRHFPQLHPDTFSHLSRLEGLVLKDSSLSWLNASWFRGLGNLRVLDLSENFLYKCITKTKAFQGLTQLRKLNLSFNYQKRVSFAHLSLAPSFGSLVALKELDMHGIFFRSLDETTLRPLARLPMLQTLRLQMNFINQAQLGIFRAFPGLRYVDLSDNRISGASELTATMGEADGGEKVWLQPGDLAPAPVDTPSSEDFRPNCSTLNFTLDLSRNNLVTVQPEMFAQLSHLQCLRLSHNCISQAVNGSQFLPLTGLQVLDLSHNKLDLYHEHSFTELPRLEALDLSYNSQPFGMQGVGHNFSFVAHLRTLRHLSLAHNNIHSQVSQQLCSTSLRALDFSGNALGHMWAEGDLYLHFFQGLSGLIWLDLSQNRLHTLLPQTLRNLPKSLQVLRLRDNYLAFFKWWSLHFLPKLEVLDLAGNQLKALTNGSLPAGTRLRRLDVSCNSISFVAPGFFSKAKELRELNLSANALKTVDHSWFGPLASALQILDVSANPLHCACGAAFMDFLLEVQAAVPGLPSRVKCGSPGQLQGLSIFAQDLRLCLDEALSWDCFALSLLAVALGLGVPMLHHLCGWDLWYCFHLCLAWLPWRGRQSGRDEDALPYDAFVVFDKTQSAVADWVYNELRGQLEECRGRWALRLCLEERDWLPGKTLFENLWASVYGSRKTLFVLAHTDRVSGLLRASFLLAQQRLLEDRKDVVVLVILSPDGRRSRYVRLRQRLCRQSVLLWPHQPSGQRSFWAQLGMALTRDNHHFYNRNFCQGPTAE
Test: HEK-TLR9 NF-κB-luciferase reporter, ODN2006 stimulation
Format: cell-based
Conditions: for TLR9 100 nM (averaged NF-κB-Luciferase level relative to ODN2006 condition): ASO 100 nM; for TLR9 100 nM (averaged NF-κB-Luciferase level relative to ODN2006 condition) / TLR9 500 nM (averaged NF-κB-Luciferase level relative to ODN2006 condition): relative to ODN2006 only, given as fraction; for TLR9 500 nM (averaged NF-κB-Luciferase level relative to ODN2006 condition): ASO 500 nM; for TLR9-500 nM: averaged NF-κB-Luciferase relative to ODN2006: 500 nM ASO 45 min, then 200 nM ODN2006 overnight, percentage of ODN2006 only

With “TGGTCCACAACCCCTT (antisense; LNA-modified, pattern not given here) [MB21D1-697 LNA V1]” the “TLR9 100 nM (averaged NF-κB-Luciferase level relative to ODN2006 condition)” value was 1.018 and the “TLR9 500 nM (averaged NF-κB-Luciferase level relative to ODN2006 condition)” value was 0.587.
With “mG*mU*mG*mU*mC*C*T*T*C*A*T*G*C*T*T*mU*mG*mG*mA*mU (GUGUCCTTCATGCTTUGGAU; antisense; sugars from the 5' end m5 d10 m5, all phosphorothioate, methylation of C not given here) [[CDKN2B-AS1]1415]” the “TLR9-500 nM: averaged NF-κB-Luciferase relative to ODN2006” value (HEK-TLR9) was 98.99%.
With “GGCACTTTGCCTCCTT (antisense; LNA-modified, pattern not given here) [EGFR-2859 LNA V1]” the “TLR9 100 nM (averaged NF-κB-Luciferase level relative to ODN2006 condition)” value was 1.092 and the “TLR9 500 nM (averaged NF-κB-Luciferase level relative to ODN2006 condition)” value was 0.788.
With “CGCTTTTCTGTCTGGT (antisense; LNA-modified, pattern not given here) [CTNN2B-311 LNA KL]” the “TLR9 100 nM (averaged NF-κB-Luciferase level relative to ODN2006 condition)” value was 0.827 and the “TLR9 500 nM (averaged NF-κB-Luciferase level relative to ODN2006 condition)” value was 0.178.
For “mG*mC*mA*mG*mU*C*T*C*C*A*T*G*T*C*C*mC*mA*mG*mG*mC (GCAGUCTCCATGTCCCAGGC; antisense; sugars from the 5' end m5 d10 m5, all phosphorothioate, methylation of C not given here) [[CDKN2B-AS1]2234]”, the “inhibition of TLR9 sensing of ODN2006 (in words)” value (HEK-TLR9, 500 nM 2′OMe or PS oligos, 200 nM ODN2006) was “did not inhibit TLR9” and the “TLR9-500 nM: averaged NF-κB-Luciferase relative to ODN2006” value (HEK-TLR9) was 90.04%.
“CATCCACCACGTCGTC (antisense; LNA-modified, pattern not given here) [EGFR-3266 LNA V1]” was tested, and the “TLR9 100 nM (averaged NF-κB-Luciferase level relative to ODN2006 condition)” value was 0.722 and the “TLR9 500 nM (averaged NF-κB-Luciferase level relative to ODN2006 condition)” value was 0.620.
“mC*mA*mG*mU*mG*T*T*T*T*T*A*A*T*T*T*mU*mG*mU*mA*mG (mC*mA*mG*mU*mG*dT*dT*dT*dT*dT*dA*dA*dT*dT*dT*mU*mG*mU*mA*mG; antisense) [[CDKN2B-AS1]613]” was tested, and the “TLR9-500 nM: averaged NF-κB-Luciferase relative to ODN2006” value (HEK-TLR9) was 92.59%.
“GGCTCGGCTTGCCTAC (antisense; LNA-modified, pattern not given here) [CAMSAP1-5594 LNA V1]” was tested, and the “TLR9 100 nM (averaged NF-κB-Luciferase level relative to ODN2006 condition)” value was 0.714 and the “TLR9 500 nM (averaged NF-κB-Luciferase level relative to ODN2006 condition)” value was 0.350.
For “AGATTTCAGAGCAGCT (antisense; LNA-modified, pattern not given here) [EGFR-4885 LNA KL]”, the “TLR9 100 nM (averaged NF-κB-Luciferase level relative to ODN2006 condition)” value was 0.848 and the “TLR9 500 nM (averaged NF-κB-Luciferase level relative to ODN2006 condition)” value was 0.438.
With “TGACAAAGATTCACTG (antisense; LNA-modified, pattern not given here) [HPRT LNA-1353 KL]” the “TLR9 100 nM (averaged NF-κB-Luciferase level relative to ODN2006 condition)” value was 0.819 and the “TLR9 500 nM (averaged NF-κB-Luciferase level relative to ODN2006 condition)” value was 0.574.
With “ATGTGATGGCCTCCCA (antisense; LNA-modified, pattern not given here) [HPRT LNA-335 V1]” the “TLR9 100 nM (averaged NF-κB-Luciferase level relative to ODN2006 condition)” value was 0.776 and the “TLR9 500 nM (averaged NF-κB-Luciferase level relative to ODN2006 condition)” value was 0.451.
With “AATCCAACAAAGTCTG (antisense; LNA-modified, pattern not given here) [HPRT LNA-692 KL]” the “TLR9 100 nM (averaged NF-κB-Luciferase level relative to ODN2006 condition)” value was 1.050 and the “TLR9 500 nM (averaged NF-κB-Luciferase level relative to ODN2006 condition)” value was 0.529.
“TCGTGGGGTCCTTTTC (antisense; LNA-modified, pattern not given here) [HPRT LNA-660 V1]” was tested, and the “TLR9 100 nM (averaged NF-κB-Luciferase level relative to ODN2006 condition)” value was 0.461 and the “TLR9 500 nM (averaged NF-κB-Luciferase level relative to ODN2006 condition)” value was 0.462.
In the case of “CTTGAAGCATCGTATC (antisense; LNA-modified, pattern not given here) [CTNN2B-3648 LNA KL]”, the “TLR9 100 nM (averaged NF-κB-Luciferase level relative to ODN2006 condition)” value is reported as 0.899 and the “TLR9 500 nM (averaged NF-κB-Luciferase level relative to ODN2006 condition)” value is reported as 0.483.
With “GAGGTCTTGGCTTCGT (antisense; LNA-modified, pattern not given here) [MB21D1-525 LNA V1]” the “TLR9 100 nM (averaged NF-κB-Luciferase level relative to ODN2006 condition)” value was 0.897 and the “TLR9 500 nM (averaged NF-κB-Luciferase level relative to ODN2006 condition)” value was 0.224.
For “CCTCCCATCTCCTTCA (antisense; LNA-modified, pattern not given here) [HPRT LNA-326 V1]”, the “TLR9 100 nM (averaged NF-κB-Luciferase level relative to ODN2006 condition)” value was 1.010 and the “TLR9 500 nM (averaged NF-κB-Luciferase level relative to ODN2006 condition)” value was 0.727.
In the case of “mA*mG*mU*mC*mU*C*C*A*T*G*T*C*C*C*A*mG*mG*mC*mC*mU (mA*mG*mU*mC*mU*dC*dC*dA*dT*dG*dT*dC*dC*dC*dA*mG*mG*mC*mC*mU; antisense) [[CDKN2B-AS1]2232]”, the “TLR9-500 nM: averaged NF-κB-Luciferase relative to ODN2006” value (HEK-TLR9) is reported as 122.20%.
“TGCTCCTCGGTCTCCC (antisense; LNA-modified, pattern not given here) [CAMSAP1-1850 LNA V1]” was tested, and the “TLR9 100 nM (averaged NF-κB-Luciferase level relative to ODN2006 condition)” value was 0.548 and the “TLR9 500 nM (averaged NF-κB-Luciferase level relative to ODN2006 condition)” value was 0.535.
In the case of “TCTTGGCTTCGTGGAG (antisense; LNA-modified, pattern not given here) [MB21D1-521 LNA V1]”, the “TLR9 100 nM (averaged NF-κB-Luciferase level relative to ODN2006 condition)” value is reported as 1.251 and the “TLR9 500 nM (averaged NF-κB-Luciferase level relative to ODN2006 condition)” value is reported as 0.595.
With “CTGCAGCTTCCTTGTC (antisense; LNA-modified, pattern not given here) [CTNN2B-2136 LNA V1]” the “TLR9 100 nM (averaged NF-κB-Luciferase level relative to ODN2006 condition)” value was 0.358 and the “TLR9 500 nM (averaged NF-κB-Luciferase level relative to ODN2006 condition)” value was 0.263.
In the case of “AGCTTCGAGGCCCCAG (antisense; LNA-modified, pattern not given here) [MB21D1-616 LNA V1]”, the “TLR9 100 nM (averaged NF-κB-Luciferase level relative to ODN2006 condition)” value is reported as 0.114 and the “TLR9 500 nM (averaged NF-κB-Luciferase level relative to ODN2006 condition)” value is reported as 0.085.
With “GTCTCTGGAGCTTCCT (antisense; LNA-modified, pattern not given here) [CAMSAP1-2456 LNA V1]” the “TLR9 100 nM (averaged NF-κB-Luciferase level relative to ODN2006 condition)” value was 0.935 and the “TLR9 500 nM (averaged NF-κB-Luciferase level relative to ODN2006 condition)” value was 0.272.
“AAAGGACTGAGGAAAG (antisense; LNA-modified, pattern not given here) [CAMSAP1-6273 LNA KL]” was tested, and the “TLR9 100 nM (averaged NF-κB-Luciferase level relative to ODN2006 condition)” value was 0.780 and the “TLR9 500 nM (averaged NF-κB-Luciferase level relative to ODN2006 condition)” value was 0.185.
With “TCCACAATCAAGACAT (antisense; LNA-modified, pattern not given here) [HPRT LNA-551 KL]” the “TLR9 100 nM (averaged NF-κB-Luciferase level relative to ODN2006 condition)” value was 0.851 and the “TLR9 500 nM (averaged NF-κB-Luciferase level relative to ODN2006 condition)” value was 0.308.
With “GCACACTTCGTACCCA (antisense; LNA-modified, pattern not given here) [CAMSAP1-4915 LNA V1]” the “TLR9 100 nM (averaged NF-κB-Luciferase level relative to ODN2006 condition)” value was 0.683 and the “TLR9 500 nM (averaged NF-κB-Luciferase level relative to ODN2006 condition)” value was 0.147.
“mC*mA*mG*mU*mC*T*C*C*A*T*G*T*C*C*C*mA*mG*mG*mC*mC (mC*mA*mG*mU*mC*dT*dC*dC*dA*dT*dG*dT*dC*dC*dC*mA*mG*mG*mC*mC; antisense) [[CDKN2B-AS1]2233]” was tested, and the “TLR9-500 nM: averaged NF-κB-Luciferase relative to ODN2006” value (HEK-TLR9) was 55.13%.
For “GTCCTTGCACGTGGCT (antisense; LNA-modified, pattern not given here) [EGFR-1015 LNA V1]”, the “TLR9 100 nM (averaged NF-κB-Luciferase level relative to ODN2006 condition)” value was 1.310 and the “TLR9 500 nM (averaged NF-κB-Luciferase level relative to ODN2006 condition)” value was 0.722.
“TCCGCCCAAAGGGAAC (antisense; LNA-modified, pattern not given here) [HPRT LNA-1027 KL]” was tested, and the “TLR9 100 nM (averaged NF-κB-Luciferase level relative to ODN2006 condition)” value was 0.876 and the “TLR9 500 nM (averaged NF-κB-Luciferase level relative to ODN2006 condition)” value was 0.599.
“mG*mU*mG*mU*mU*T*T*T*A*A*T*T*T*T*G*mU*mA*mG*mA*mG (mG*mU*mG*mU*mU*dT*dT*dT*dA*dA*dT*dT*dT*dT*dG*mU*mA*mG*mA*mG) [[CDKN2B-AS1]611]” was tested, and the “TLR9-500 nM: averaged NF-κB-Luciferase relative to ODN2006” value (HEK-TLR9) was 98.50%.
In the case of “mA*mU*mU*mU*mC*C*A*C*A*T*G*C*C*C*A*mG*mU*mG*mU*mU (AUUUCCACATGCCCAGUGUU; antisense; sugars from the 5' end m5 d10 m5, all phosphorothioate, methylation of C not given here) [[CDKN2B-AS1]626]”, the “TLR9-500 nM: averaged NF-κB-Luciferase relative to ODN2006” value (HEK-TLR9) is reported as 63.65%.
